Key:
RPN13 = RPN13 (Homo sapiens, UniProt Q16186); experiment: Biochemical (alpha signal) assay for inhibitors that disrupt the binding of RPN13 with poly-ubiquitinylation; conditions: FIG. 9C
Excerpt: The assay was optimized based on concentrations of the target inhibitors, concentrations of compound RA190, and in view of the alpha signal. The conditions for the biochemical assay are recognized by those of ordinary skill in the art.

[1] = system: Molm13 PA and Molm13 RE (acute myeloid leukemia) cells; experiment: Relative cell growth by cell count, Molm13 PA and Molm13 RE cells; format: cell-based; conditions: concentrations between 0 and 10 μM, after 10 days, effect with increased concentration
Method: (§1) FIGS. 12A-12D show a Western blot of an assay where MOLM 13 cells were treated with exemplary DOT1L degraders and then the cell numbers were counted over time to confirm the cellular activity of the cells. FIGS. 12A-12D show the relative cell growth (%), based on a cell count of acute myeloid leukemia cells upon the treatment of Molm13 PA cells, Molm13 RE cells, and human leukemia (HL60; as negative control) cells with exemplary DOT1L degraders at various concentrations in for 10 days.
(§2) Molm13 PA (acute myeloid leukemia), Molm13 RE (acute myeloid leukemia), and HL60 (human leukemia) cells were treated with exemplary thalidomide-based, DOT1L degrader compounds DOT1L-6, DOT1L-7, DOT1L-8, and RA190 at various concentrations between 0 and 10 μM. The relative cell growth of the Molm13 PA, Molm13 RE, and HL60 cells was measured to analyze cellular activity after 10 days.

[2] = system: HL60 (human leukemia) cells; experiment: Relative cell growth by cell count, HL60 cells (negative control line); format: cell-based; conditions: concentrations between 0 and 10 μM, after 10 days, effect with increased concentration
Method: as §1, §2

RPN13, sequence (Q16186 whole entry): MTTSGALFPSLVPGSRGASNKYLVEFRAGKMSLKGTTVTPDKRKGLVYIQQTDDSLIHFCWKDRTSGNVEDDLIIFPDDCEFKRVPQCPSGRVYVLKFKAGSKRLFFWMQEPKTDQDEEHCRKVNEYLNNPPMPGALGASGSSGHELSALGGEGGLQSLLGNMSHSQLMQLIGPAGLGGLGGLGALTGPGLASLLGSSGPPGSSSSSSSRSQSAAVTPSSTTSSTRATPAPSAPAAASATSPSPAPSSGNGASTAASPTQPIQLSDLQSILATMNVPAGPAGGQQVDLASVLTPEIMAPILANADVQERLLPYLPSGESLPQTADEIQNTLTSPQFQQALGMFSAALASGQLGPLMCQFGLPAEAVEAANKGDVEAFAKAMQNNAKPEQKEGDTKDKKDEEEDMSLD

Disruption of the binding of RPN13 with poly-ubiquitinylation (RPN13): can disrupt the binding
Structure (SMILES): N[C@@H](Cc1ccccc1)C(=O)N1C/C(=C\c2ccc(Cl)c(Cl)c2)C(=O)/C(=C/c2ccc(Cl)c(Cl)c2)C1 [RA190]
Relative cell growth (based on cell count) [1]: reduced cell growth
Relative cell growth (based on cell count) [2]: reduced cell growth

Source: patent publication US12331069B2, “DOT1L degraders and uses thereof” (DANA-FARBER CANCER INSTITUTE, INC., priority 2019, dated 2025)
